Measurements from PubChem BioAssay (NCI).
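Cells were grown in 96-well plates and exposed to each compound for 48 hours at five concentrations; endpoints were interpolated linearly between bracketing concentrations, or set to the highest concentration if not reached. TGI denotes the concentration required for complete inhibition of growth.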

Key:
Assay in all cases: NCI-60 cell line screen, 48 h
[1] = test system: HL-60(TB) leukemia
[2] = test system: RPMI-8226 leukemia
[3] = test system: SK-MEL-28 melanoma
[4] = test system: NCI/ADR-RES ovarian
[5] = test system: NCI-H460 lung
[6] = test system: DU-145 prostate
[7] = test system: HS 578T breast
[8] = test system: SNB-19 CNS
[9] = test system: SR leukemia
[10] = test system: A498 renal

Structure (SMILES) | TGI [1] [µM] | TGI [2] [µM] | TGI [3] [µM] | TGI [4] [µM] | TGI [5] [µM] | TGI [6] [µM] | TGI [7] [µM] | TGI [8] [µM] | TGI [9] [µM] | TGI [10] [µM]
Cc1cc(C)nc(NC(=S)Nc2ccc(Cl)cc2)c1 | > 100 | > 100 | > 100 | > 100 | > 100 | > 100 | > 100 | > 100 | > 100 | > 100
COC(=O)c1ccccc1/C=C1\Cc2ccc3ccccc3c2C1C (stereo not given) | > 100 | > 100 | > 100 | > 100 | > 100 | > 100 | > 100 | > 100 | > 100 | > 100
O=S(=O)(O)c1ccc2c(N=Nc3c(O)ccc4ccccc34)cccc2c1 | > 100 | > 100 | > 100 | > 100 | > 100 | > 100 | > 100 | > 100 | > 100 | > 100
CON(C)C(=O)C(C)NC(=O)OC(C)(C)C (stereo not given) | > 100 | > 100 | > 100 | > 100 | > 100 | > 100 | > 100 | > 100 | > 100 | > 100
O=C([O-])C1([n+]2c(-c3ccccc3)cc(-c3ccccc3)cc2-c2ccccc2)CC1 | 68.4 | > 100 | > 100 | > 100 | > 100 | > 100 | > 100 | > 100 | > 100 | > 100
Cc1cc2c3c(c1)CCCN3CCC2 | > 10 | > 10 | > 10 | > 10 | > 10 | > 10 | > 10 | > 10 | > 10 | > 10
O=C(/C=C/c1cccs1)c1ccc([N+](=O)[O-])cc1 | > 100 | > 100 | > 100 | > 100 | > 100 | > 100 | > 100 | > 100 | > 100 | > 100
O=S(=O)(/N=C(\NO)Nc1ccc(Cl)cc1)c1cc(S(=O)(=O)c2ccccc2)cs1 | 7.19 | 44.8 | 41.2 | > 100 | 40.7 | 33 | 54.8 | 42.6 | 95.7 | 28.4
COCCOCCOCCC(=O)NC1CC2CCC1(C)C2(C)C (stereo not given) | > 100 | > 100 | > 100 | > 100 | > 100 | > 100 | > 100 | > 100 | > 100 | > 100
COc1cccc(N2C(=O)C3CC(CC(C)(C)C)c4c([nH]c5ccccc45)C3C2=O)c1 (stereo not given) | > 10 | > 10 | > 10 | > 10 | > 10 | > 10 | 9.87 | > 10 | 4.2 | > 10
O=C(O)Cc1ccc(Oc2nc3ccccc3nc2-c2ccccc2)cc1 | > 100 | > 100 | > 100 | > 100 | > 100 | > 100 | > 100 | > 100 | > 100 | > 100
CC(=O)OC1CC[C@@]2(C)C(=CC[C@@H]3[C@@H]2CC[C@]2(C)C(OC(C)=O)[C@H](n4ccnc4)C[C@@H]32)C1 (stereo not given in full) | 35.6 | 55.2 | 31.5 | > 100 | 33.4 | > 100 | > 100 | > 100 | 36.7 | > 100
C=CCCCCCCCCC(=O)ON(Cc1ccc(O)c(OC)c1)C(=O)C(F)(F)F | > 100 | > 100 | > 100 | > 100 | > 100 | > 100 | > 100 | > 100 | > 100 | > 100
CC(C)=NNc1ncnc2nc[nH]c12 | > 72.5 | > 62 | > 100 | > 100 | 38.9 | 67.8 | 83.9 | > 100 | > 60.8 | 54.2
NC(N)=N/N=C\c1c(-c2ccccc2)nc2sccn12 | 53.3 | 49 | 29.1 | 34.9 | 29.7 | 33 | 34.5 | 27.3 | > 100 | 33.6
CCN(CCCl)c1cc(CN(C)C)cc(NC(=O)c2cc(C(=O)Nc3cc(CN(C)C)cc(N(CC)CCCl)c3)n(C)n2)c1 | 4.04 | > 100 | 2.81 | 32.3 | 0.4 | 9.19 | 1.52 | 1.24 | > 100 | 4.41
CC(=O)O[C@H]1C[C@H]2[C@@H]([C@H](OC(C)=O)C[C@@H]3CC4(CC[C@@]32C)OOC2(CCCCC2)OO4)[C@@H]2CC[C@H]([C@H](C)CCC(=O)O)[C@@]12C | 15.1 | 20.7 | 24 | 19 | 21.6 | 31.6 | 9.32 | 25.4 | 8.3 | 27.1
O=C(/C=C/c1ccc(Cl)cc1)c1ccc(Cl)s1 | > 100 | 80.1 | > 100 | > 100 | > 100 | > 100 | > 100 | > 100 | > 100 | > 100
Nc1nc2c(c(=O)[nH]1)NC(CCNc1ccc(C(=O)O)cc1)CN2 (stereo not given) | > 100 | > 100 | > 100 | > 100 | > 100 | > 100 | > 100 | > 100 | > 100 | > 100
CN(CCCNC(=O)c1c2ccc3ccccc3c2nn1C)CCCNC(=O)c1c2ccc3ccccc3c2nn1C | 29.8 | 4.86 | 4.6 | 29.3 | 18.4 | 44.4 | 30.3 | 28.6 | 13 | 15.7
CCOC(=O)C1=C(C)N(CC(C)C)C2(O)C(OC)CC(=O)C3C(=O)N(c4ccccc4)C(=O)C132 (stereo not given) | 69.2 | > 100 | 70.1 | > 100 | > 100 | > 100 | > 100 | > 100 | 49.9 | > 100
Clc1cccc2[nH]ncc12 | > 100 | > 100 | > 100 | > 100 | > 100 | > 100 | > 100 | > 100 | > 100 | > 100
O=S(=O)(c1ccc2ccccc2c1)N1CCN(S(=O)(=O)c2ccc3ccccc3c2)CC1 | > 100 | > 100 | > 100 | > 100 | > 100 | > 100 | > 100 | > 100 | > 100 | > 100
Cc1cc(/N=C/c2ccc(Cl)cc2)n(-c2ccccc2)n1 | 91.5 | > 100 | > 100 | > 100 | > 100 | > 100 | > 100 | > 100 | > 100 | 79.7
CC(C)CCCC(C)[C@H]1CCC2[C@@H]3CCC4Cc5nc6c(nc5C[C@]4(C)C3CC[C@@]21C)CC1CC[C@@H]2C(CC[C@@]3(C)C2CC[C@@H]3O)[C@@]1(C)C6 (stereo not given in full) | > 100 | > 100 | > 100 | > 100 | > 100 | > 100 | > 100 | > 100 | > 100 | > 100
